Assay results published in publication PMC7180948, “New Insights into 4-Anilinoquinazolines as Inhibitors of Cardiac Troponin I–Interacting Kinase (TNNi3K)” (Molecules, 2020).

How the values were obtained:
Experiment in all cases: biochemical
Design in all cases: KINOMEscan competition binding panel (Eurofins DiscoverX), single concentration, % inhibition
Details in all cases: read-out: 7 at 1 µM % inhibition
CDK5 = CDK5 (Homo sapiens, UniProt Q00535)
In short: (§1)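 Kinome-wide profiling (KINOMEscan, >400 human kinases) was run at 1 µM compound.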

PIK3CA(E545A) = PIK3CA(E545A) (Homo sapiens, UniProt P42336, E545A)
In short: as §1

PHKG2 = PHKG2 (Homo sapiens, UniProt P15735)
In short: as §1

CSNK1D = CSNK1D (Homo sapiens, UniProt P48730)
In short: as §1

ACVR1 = ACVR1 (Homo sapiens, UniProt Q04771)
In short: as §1

NEK2 = NEK2 (Homo sapiens, UniProt P51955)
In short: as §1

MAP4K5 = MAP4K5 (Homo sapiens, UniProt Q9Y4K4)
In short: as §1

TRKB = biological target: T1, TRKB (Homo sapiens, UniProt Q16620)
T1 construct: gene NTRK2
In short: as §1

WNK2 = WNK2 (Homo sapiens, UniProt Q9Y3S1)
In short: as §1

CSF1R = CSF1R (Homo sapiens, UniProt P07333)
In short: as §1

BMX = BMX (Homo sapiens, UniProt P51813)
In short: as §1

[1] = biological target: T2, TYK2(JH1domain-catalytic) (Homo sapiens, UniProt P29597)
T2 construct: JH1domain-catalytic
In short: as §1

MEK2 = biological target: T3, MEK2 (Homo sapiens, UniProt P36507)
T3 construct: gene MAP2K2
In short: as §1

TGFBR2 = TGFBR2 (Homo sapiens, UniProt P37173)
In short: as §1

BMPR1B = BMPR1B (Homo sapiens, UniProt O00238)
In short: as §1

SRPK2 = SRPK2 (Homo sapiens, UniProt P78362)
In short: as §1

ERBB2 = ERBB2 (Homo sapiens, UniProt P04626)
In short: as §1

DYRK1B = DYRK1B (Homo sapiens, UniProt Q9Y463)
In short: as §1

MRCKB = biological target: T4, MRCKB (Homo sapiens, UniProt Q9Y5S2)
T4 construct: gene CDC42BPB
In short: as §1

[2] = biological target: T5, RSK3(Kin.Dom.1-N-terminal) (Homo sapiens, UniProt Q15349)
T5 construct: gene RPS6KA2; Kin.Dom.1-N-terminal
In short: as §1

PIK3CA = PIK3CA (Homo sapiens, UniProt P42336)
In short: as §1

EPHB1 = EPHB1 (Homo sapiens, UniProt P54762)
In short: as §1

MET = MET (Homo sapiens, UniProt P08581)
In short: as §1

PIK3CA(H1047L) = PIK3CA(H1047L) (Homo sapiens, UniProt P42336, H1047L)
In short: as §1

BMX, sequence (P51813 whole entry): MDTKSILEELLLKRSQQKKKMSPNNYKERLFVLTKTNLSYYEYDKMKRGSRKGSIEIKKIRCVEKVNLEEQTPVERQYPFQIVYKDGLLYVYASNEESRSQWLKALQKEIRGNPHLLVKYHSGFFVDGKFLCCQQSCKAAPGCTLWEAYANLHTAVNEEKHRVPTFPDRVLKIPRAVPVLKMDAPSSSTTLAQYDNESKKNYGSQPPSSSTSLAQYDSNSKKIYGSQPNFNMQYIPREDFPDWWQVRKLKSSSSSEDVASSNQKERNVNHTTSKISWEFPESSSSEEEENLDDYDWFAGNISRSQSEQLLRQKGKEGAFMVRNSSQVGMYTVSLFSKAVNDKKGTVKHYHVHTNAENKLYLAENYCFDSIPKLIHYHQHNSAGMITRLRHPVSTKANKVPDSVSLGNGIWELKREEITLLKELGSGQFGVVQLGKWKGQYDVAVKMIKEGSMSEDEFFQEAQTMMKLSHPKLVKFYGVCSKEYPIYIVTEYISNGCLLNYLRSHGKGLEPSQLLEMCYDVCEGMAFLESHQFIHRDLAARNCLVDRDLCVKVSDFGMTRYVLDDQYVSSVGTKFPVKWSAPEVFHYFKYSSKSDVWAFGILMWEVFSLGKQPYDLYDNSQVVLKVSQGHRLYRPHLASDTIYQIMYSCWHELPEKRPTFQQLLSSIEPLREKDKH
T2 sequence (P29597 whole entry): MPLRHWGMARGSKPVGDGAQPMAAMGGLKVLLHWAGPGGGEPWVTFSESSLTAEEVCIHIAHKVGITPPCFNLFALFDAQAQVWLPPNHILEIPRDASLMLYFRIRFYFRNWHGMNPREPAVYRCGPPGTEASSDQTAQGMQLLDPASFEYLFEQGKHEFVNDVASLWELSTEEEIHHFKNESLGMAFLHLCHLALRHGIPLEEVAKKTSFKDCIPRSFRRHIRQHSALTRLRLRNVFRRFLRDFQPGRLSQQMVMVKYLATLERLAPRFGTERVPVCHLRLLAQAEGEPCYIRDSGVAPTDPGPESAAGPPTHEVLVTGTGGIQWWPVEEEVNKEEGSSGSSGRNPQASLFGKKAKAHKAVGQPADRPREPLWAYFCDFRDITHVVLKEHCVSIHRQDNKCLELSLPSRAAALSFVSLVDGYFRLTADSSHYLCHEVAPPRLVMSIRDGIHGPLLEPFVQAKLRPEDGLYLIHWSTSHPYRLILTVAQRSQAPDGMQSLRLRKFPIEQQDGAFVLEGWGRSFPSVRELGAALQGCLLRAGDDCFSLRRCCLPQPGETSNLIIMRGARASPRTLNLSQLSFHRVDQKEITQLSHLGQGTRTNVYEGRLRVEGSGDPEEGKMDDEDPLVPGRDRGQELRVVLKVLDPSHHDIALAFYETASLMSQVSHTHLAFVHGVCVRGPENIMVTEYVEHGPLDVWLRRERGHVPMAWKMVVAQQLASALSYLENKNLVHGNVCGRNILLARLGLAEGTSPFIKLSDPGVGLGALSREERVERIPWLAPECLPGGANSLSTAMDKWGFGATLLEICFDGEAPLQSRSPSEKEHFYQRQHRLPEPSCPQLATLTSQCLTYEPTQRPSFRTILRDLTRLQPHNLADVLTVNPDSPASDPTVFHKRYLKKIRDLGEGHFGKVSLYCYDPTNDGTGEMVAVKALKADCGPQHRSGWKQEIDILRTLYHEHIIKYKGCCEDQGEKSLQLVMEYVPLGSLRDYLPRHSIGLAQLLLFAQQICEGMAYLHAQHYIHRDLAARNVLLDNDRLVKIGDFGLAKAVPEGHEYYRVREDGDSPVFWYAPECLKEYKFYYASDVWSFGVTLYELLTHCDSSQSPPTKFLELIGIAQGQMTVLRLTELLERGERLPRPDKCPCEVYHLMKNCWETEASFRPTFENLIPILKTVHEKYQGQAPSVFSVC
ACVR1, sequence (Q04771 whole entry): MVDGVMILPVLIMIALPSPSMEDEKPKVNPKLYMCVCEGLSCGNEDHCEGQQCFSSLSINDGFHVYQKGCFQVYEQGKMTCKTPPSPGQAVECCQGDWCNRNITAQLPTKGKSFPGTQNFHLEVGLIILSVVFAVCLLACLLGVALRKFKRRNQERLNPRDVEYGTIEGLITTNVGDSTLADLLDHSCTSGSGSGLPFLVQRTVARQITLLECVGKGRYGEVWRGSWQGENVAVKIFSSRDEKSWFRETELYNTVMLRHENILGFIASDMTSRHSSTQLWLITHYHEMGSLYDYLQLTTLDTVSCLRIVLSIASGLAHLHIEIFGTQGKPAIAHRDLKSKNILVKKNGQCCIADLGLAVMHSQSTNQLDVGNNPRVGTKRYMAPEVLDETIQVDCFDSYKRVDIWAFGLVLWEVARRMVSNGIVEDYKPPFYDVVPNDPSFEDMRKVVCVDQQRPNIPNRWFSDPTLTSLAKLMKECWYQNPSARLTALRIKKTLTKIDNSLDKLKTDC
SRPK2, sequence (P78362 whole entry): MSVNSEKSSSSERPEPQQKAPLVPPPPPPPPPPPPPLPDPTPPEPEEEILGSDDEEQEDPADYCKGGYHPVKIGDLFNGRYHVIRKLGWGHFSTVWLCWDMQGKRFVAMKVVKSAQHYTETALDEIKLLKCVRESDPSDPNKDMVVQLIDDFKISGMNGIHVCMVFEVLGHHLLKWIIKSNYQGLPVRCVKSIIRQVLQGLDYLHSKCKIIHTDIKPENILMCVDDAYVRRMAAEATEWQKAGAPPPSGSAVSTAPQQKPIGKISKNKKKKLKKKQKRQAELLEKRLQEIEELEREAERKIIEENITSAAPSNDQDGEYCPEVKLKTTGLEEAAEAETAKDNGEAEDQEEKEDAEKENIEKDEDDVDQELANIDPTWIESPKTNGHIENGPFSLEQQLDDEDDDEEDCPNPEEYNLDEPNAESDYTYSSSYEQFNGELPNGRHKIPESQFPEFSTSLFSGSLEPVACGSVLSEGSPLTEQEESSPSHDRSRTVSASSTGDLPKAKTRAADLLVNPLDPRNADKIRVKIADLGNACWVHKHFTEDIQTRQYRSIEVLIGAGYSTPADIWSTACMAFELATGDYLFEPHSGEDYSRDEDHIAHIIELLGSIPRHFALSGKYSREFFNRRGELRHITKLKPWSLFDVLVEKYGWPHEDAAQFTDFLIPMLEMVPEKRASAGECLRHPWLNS
T4 sequence (Q9Y5S2 whole entry): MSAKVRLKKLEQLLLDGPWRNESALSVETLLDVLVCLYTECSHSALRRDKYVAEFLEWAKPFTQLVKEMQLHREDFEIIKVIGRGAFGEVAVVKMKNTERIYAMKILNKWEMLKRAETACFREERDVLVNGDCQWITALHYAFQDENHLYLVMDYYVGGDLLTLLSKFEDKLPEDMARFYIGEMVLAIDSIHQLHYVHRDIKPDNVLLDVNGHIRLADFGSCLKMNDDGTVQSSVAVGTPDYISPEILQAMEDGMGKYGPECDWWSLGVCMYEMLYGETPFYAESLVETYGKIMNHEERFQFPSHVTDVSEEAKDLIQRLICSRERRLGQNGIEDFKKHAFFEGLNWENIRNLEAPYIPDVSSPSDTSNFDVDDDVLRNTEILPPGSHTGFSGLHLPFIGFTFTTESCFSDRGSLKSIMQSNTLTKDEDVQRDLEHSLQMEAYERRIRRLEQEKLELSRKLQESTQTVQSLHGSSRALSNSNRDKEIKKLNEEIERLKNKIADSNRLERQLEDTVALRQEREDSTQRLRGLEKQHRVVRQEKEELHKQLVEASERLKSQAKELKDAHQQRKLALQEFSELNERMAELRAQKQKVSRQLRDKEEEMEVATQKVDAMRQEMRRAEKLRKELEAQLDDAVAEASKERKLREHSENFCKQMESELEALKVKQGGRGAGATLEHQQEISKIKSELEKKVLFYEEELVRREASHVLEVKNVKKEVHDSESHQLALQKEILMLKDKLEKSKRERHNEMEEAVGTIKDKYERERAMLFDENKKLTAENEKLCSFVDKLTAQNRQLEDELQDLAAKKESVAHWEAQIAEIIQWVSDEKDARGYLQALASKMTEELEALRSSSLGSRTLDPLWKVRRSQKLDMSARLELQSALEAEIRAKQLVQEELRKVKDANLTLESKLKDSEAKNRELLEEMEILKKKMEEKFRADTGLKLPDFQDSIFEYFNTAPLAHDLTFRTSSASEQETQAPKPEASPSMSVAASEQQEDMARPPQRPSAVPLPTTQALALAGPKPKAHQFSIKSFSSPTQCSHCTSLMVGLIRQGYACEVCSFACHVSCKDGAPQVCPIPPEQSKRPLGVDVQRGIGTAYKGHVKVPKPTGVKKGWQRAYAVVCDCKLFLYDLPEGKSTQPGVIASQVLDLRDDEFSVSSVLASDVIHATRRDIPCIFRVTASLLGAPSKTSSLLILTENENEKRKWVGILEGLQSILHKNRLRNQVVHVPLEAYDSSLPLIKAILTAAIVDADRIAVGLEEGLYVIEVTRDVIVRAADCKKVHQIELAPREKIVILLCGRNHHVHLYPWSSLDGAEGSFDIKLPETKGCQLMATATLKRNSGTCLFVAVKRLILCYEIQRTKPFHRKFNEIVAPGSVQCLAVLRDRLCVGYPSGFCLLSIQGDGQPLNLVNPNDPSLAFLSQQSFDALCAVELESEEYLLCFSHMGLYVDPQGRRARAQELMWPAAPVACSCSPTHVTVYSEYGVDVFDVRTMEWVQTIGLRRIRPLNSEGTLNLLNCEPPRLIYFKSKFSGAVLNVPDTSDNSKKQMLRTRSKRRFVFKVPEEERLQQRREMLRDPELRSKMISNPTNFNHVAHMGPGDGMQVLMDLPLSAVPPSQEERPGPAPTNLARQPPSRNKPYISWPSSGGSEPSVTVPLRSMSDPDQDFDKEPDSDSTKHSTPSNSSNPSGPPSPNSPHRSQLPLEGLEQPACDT
CDK5, sequence (Q00535 whole entry): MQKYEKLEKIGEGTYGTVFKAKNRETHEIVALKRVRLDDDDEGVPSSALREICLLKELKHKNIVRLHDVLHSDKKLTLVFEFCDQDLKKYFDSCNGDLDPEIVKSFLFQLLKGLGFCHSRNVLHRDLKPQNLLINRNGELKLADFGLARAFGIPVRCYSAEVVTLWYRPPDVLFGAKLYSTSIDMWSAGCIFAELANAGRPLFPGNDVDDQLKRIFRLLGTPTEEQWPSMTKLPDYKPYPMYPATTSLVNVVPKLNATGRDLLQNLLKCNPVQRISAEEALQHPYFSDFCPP

Q: For CNS(=O)(=O)c1ccc(N(C)C)c(Nc2ncnc3cc(OC)c(OC)cc23)c1 [compound 7, 3-((6,7-dimethoxyquinazolin-4-yl)amino)-4-(dimethylamino)-N-methylbenzenesulfonamide], which inhibition at 1 µM (CDK5) is on record?
A: 0%

Q: And the inhibition at 1 µM (PIK3CA(E545A))?
A: 0%

Q: And the inhibition at 1 µM (PHKG2)?
A: 0%

Q: What about the inhibition at 1 µM (CSNK1D) of the same compound?
A: 0%

Q: What about the inhibition at 1 µM (ACVR1) of the same compound?
A: 0%

Q: And the inhibition at 1 µM (NEK2)?
A: 2%

Q: And the inhibition at 1 µM (MAP4K5)?
A: 0%

Q: What about the inhibition at 1 µM (TRKB) of the same compound?
A: 14%

Q: And the inhibition at 1 µM (WNK2)?
A: 0%

Q: What about the inhibition at 1 µM (CSF1R) of the same compound?
A: 22%

Q: And the inhibition at 1 µM (BMX)?
A: 0%

Q: And the inhibition at 1 µM [1]?
A: 0%

Q: And the inhibition at 1 µM (MEK2)?
A: 25%

Q: What about the inhibition at 1 µM (TGFBR2) of the same compound?
A: 0%

Q: What about the inhibition at 1 µM (BMPR1B) of the same compound?
A: 34%

Q: And the inhibition at 1 µM (SRPK2)?
A: 15%

Q: And the inhibition at 1 µM (ERBB2)?
A: 0%

Q: What about the inhibition at 1 µM (DYRK1B) of the same compound?
A: 0%

Q: And the inhibition at 1 µM (MRCKB)?
A: 0%

Q: What about the inhibition at 1 µM [2] of the same compound?
A: 0%

Q: What about the inhibition at 1 µM (PIK3CA) of the same compound?
A: 51%

Q: What about the inhibition at 1 µM (EPHB1) of the same compound?
A: 0%

Q: And the inhibition at 1 µM (MET)?
A: 3%

Q: What about the inhibition at 1 µM (PIK3CA(H1047L)) of the same compound?
A: 0%
